Counter-ions that a name gives are not always drawn.
How the values were obtained:
Assay type in all cases: cell-based
E. faecium ATCC 19434 = test: MIC, CLSI broth microdilution (Table 1); settings: Enterococcus faecium, ATCC19434; Gram positive; MHB, 37° C., 16-20 hours; read-out: MIC E. faecium ATCC 19434
P. aeruginosa ATCC 27853 = test: MIC, CLSI broth microdilution (Table 2); settings: Pseudomonas aeruginosa, ATCC27853; Gram negative; MHB, 37° C., 16-20 hours; read-out: MIC P. aeruginosa ATCC 27853
[1] = system: S. aureus ATCC 43300 (MRSA, FQ-S); test: MIC, CLSI broth microdilution (Table 1); settings: Staphylococcus aureus; Gram positive; MHB, 37° C., 16-20 hours; read-out: MIC S. aureus ATCC 43300 (MRSA, FQ-S)
S. pneumonia ATCC 49619 = test: MIC, CLSI broth microdilution (Table 1); settings: Streptococcus pneumoniae, ATCC49619; Gram positive; MHB, 37° C., 16-20 hours; read-out: MIC S. pneumonia ATCC 49619
E. faecalis ATCC 29212 = test: MIC, CLSI broth microdilution (Table 1); settings: Enterococcus faecalis, ATCC29212; Gram positive; MHB, 37° C., 16-20 hours; read-out: MIC E. faecalis ATCC 29212
S. aureus ATCC 25923 = test: MIC, CLSI broth microdilution (Table 1); settings: Staphylococcus aureus, ATCC25923; Gram positive; MHB, 37° C., 16-20 hours; read-out: MIC S. aureus ATCC 25923
E. coli ATCC 25922 = test: MIC, CLSI broth microdilution (Table 2); settings: Escherichia coli, ATCC25922; Gram negative; MHB, 37° C., 16-20 hours; read-out: MIC E. coli ATCC 25922
[2] = system: S. aureus BAA-1720 (MRSA, FQ-R); test: MIC, CLSI broth microdilution (Table 1); settings: Staphylococcus aureus; Gram positive; MHB, 37° C., 16-20 hours; read-out: MIC S. aureus BAA-1720 (MRSA, FQ-R)
H. influenzae ATCC 49247 = test: MIC, CLSI broth microdilution (Table 2); settings: Haemophilus influenzae, ATCC49247; Gram negative; MHB, 37° C., 16-20 hours; read-out: MIC H. influenzae ATCC 49247
A. baumannii ATCC 19606 = test: MIC, CLSI broth microdilution (Table 2); settings: Acinetobacter baumannii, ATCC19606; Gram negative; MHB, 37° C., 16-20 hours; read-out: MIC A. baumannii B. ATCC 19606
K. pneumoniae ATCC 33495 = test: MIC, CLSI broth microdilution (Table 2); settings: Klebsiella pneumoniae, ATCC33495; Gram negative; MHB, 37° C., 16-20 hours; read-out: MIC K. pneumoniae ATCC 33495
[3] = system: S. maltophilia ATCC 17677; test: MIC, CLSI broth microdilution (Table 2); settings: Stenotrophomonas maltophilia, ATCC17677; Gram negative; MHB, 37° C., 16-20 hours; read-out: MIC S. maltophilia ATCC 17677

MIC (E. faecium ATCC 19434) | MIC (P. aeruginosa ATCC 27853) | MIC [1] | MIC (S. pneumonia ATCC 49619) | MIC (E. faecalis ATCC 29212) | MIC (S. aureus ATCC 25923) | MIC (E. coli ATCC 25922) | MIC [2] | MIC (H. influenzae ATCC 49247) | MIC (A. baumannii ATCC 19606) | MIC (K. pneumoniae ATCC 33495) | MIC [3] | Structure (SMILES)
> 8 µg/mL | 1 µg/mL | 0.5 µg/mL | 2 µg/mL | 4 µg/mL | 0.5 µg/mL | 0.064 µg/mL | > 8 µg/mL | 0.064 µg/mL | 1 µg/mL | 0.125 to 0.5 µg/mL | 1 µg/mL | Cc1c(N2CCNCC2)ccn2c(=O)c(C(=O)O)cc(C3CC3)c12 [Example 34 K salt, 1-cyclopropyl-9-methyl-4-oxo-8-piperazin-1-yl-quinolizine-3-carboxylic acid]
0.5 µg/mL | 2 µg/mL | 0.016 µg/mL | 0.25 µg/mL | 0.064 µg/mL | 0.016 µg/mL | 0.125 µg/mL | 0.5 µg/mL | 0.008 µg/mL | 0.125 to 0.25 µg/mL | 0.25 µg/mL | 0.25 µg/mL | Cc1c(-c2ccc(F)cc2)ccn2c(=O)c(C(=O)O)cc(C3CC3)c12 [Example 44 K salt, 1-cyclopropyl-8-(4-fluoro-phenyl)-9-methyl-4-oxo-4H-quinolizine-3-carboxylic acid]
> 8 µg/mL | > 8 µg/mL | 0.25 µg/mL | 0.5 to 1 µg/mL | 0.25 µg/mL | 2 µg/mL | > 8 µg/mL | > 8 µg/mL | 0.032 µg/mL | > 8 µg/mL | > 8 µg/mL | > 8 µg/mL | Cc1c(-c2ccc(C(=O)O)cc2)c(F)cn2c(=O)c(C(=O)O)cc(C3CC3)c12 [Example 41 K salt, 8-(4-carboxy-phenyl)-1-cyclopropyl-7-fluoro-9-methyl-4-oxo-4H-quinolizine-3-carboxylic acid]
4 µg/mL | 4 µg/mL | 0.016 µg/mL | 0.125 µg/mL | 0.032 µg/mL | 0.008 µg/mL | 0.125 µg/mL | 0.5 µg/mL | 0.016 µg/mL | 0.25 µg/mL | 0.25 µg/mL | 0.5 µg/mL | Cc1c(-c2ccc3[nH]ccc3c2)ccn2c(=O)c(C(=O)O)cc(C3CC3)c12 [Example 22 K salt, 1-cyclopropyl-8-(1H-indol-5-yl)-9-methyl-4-oxo-4H-quinolizine-3-carboxylic acid]
0.5 µg/mL | 8 µg/mL | 0.032 µg/mL | 0.032 µg/mL | 0.032 µg/mL | 0.032 to 0.064 µg/mL | 0.125 to 0.25 µg/mL | > 8 µg/mL | 0.016 µg/mL | 4 µg/mL | 0.5 µg/mL | > 8 µg/mL | Cc1c(-c2ccc(NC(N)=O)cc2)ccn2c(=O)c(C(=O)O)cc(C3CC3)c12 [Example 24 K salt, 1-cyclopropyl-9-methyl-4-oxo-8-(4-ureido-phenyl)-4H-quinolizine-3-carboxylic acid]

More lines, now with the values behind:

Structure (SMILES) | MIC (E. faecium ATCC 19434) | MIC (P. aeruginosa ATCC 27853) | MIC [1] | MIC (S. pneumonia ATCC 49619) | MIC (E. faecalis ATCC 29212) | MIC (S. aureus ATCC 25923) | MIC (E. coli ATCC 25922) | MIC [2] | MIC (H. influenzae ATCC 49247) | MIC (A. baumannii ATCC 19606) | MIC (K. pneumoniae ATCC 33495) | MIC [3]
Cc1c(-c2ccc(C(=O)O)cc2)ccn2c(=O)c(C(=O)O)cc(C3CC3)c12 [Example 37 K salt, 8-(4-carboxy-phenyl)-1-cyclopropyl-9-methyl-4-oxo-4H-quinolizine-3-carboxylic acid] | > 8 µg/mL | > 8 µg/mL | 0.125 µg/mL | 1 µg/mL | 0.5 µg/mL | 2 µg/mL | > 8 µg/mL | 8 µg/mL | 0.064 µg/mL | > 8 µg/mL | > 8 µg/mL | > 8 µg/mL
Cc1c(N2CC[C@H](N)C2)ccn2c(=O)c(C(=O)O)cc(C3CC3)c12 [Example 27 K salt, 8-[(3S)-3-aminopyrrolidin-1-yl]-1-cyclopropyl-9-methyl-4-oxo-quinolizine-3-carboxylic acid] | > 8 µg/mL | 2 µg/mL | 0.5 µg/mL | 2 µg/mL | 4 µg/mL | 1 µg/mL | 0.064 to 0.125 µg/mL | 8 µg/mL | 0.125 µg/mL | 2 µg/mL | 0.25 µg/mL | 2 µg/mL
COc1ccc(-c2ccn3c(=O)c(C(=O)O)cc(C4CC4)c3c2C)cc1 [Example 47 K salt, 1-cyclopropyl-8-(4-methoxy-phenyl)-9-methyl-4-oxo-4H-quinolizine-3-carboxylic acid] | 1 µg/mL | 4 µg/mL | 0.016 µg/mL | 0.25 µg/mL | 0.032 to 0.064 µg/mL | 0.016 µg/mL | 0.25 µg/mL | 0.5 to 1 µg/mL | 0.032 µg/mL | 0.5 µg/mL | 1 to 2 µg/mL | 0.5 µg/mL
Cc1c(-c2cc(F)c(N)cc2F)c(F)cn2c(=O)c(C(=O)O)cc(C3CC3)c12 [Example 38 K salt, 8-(4-amino-2,5-difluoro-phenyl)-1-cyclopropyl-7-fluoro-9-methyl-4-oxo-4H-quinolizine-3-carboxylic acid] | > 8 µg/mL | > 8 µg/mL | ≤ 0.004 µg/mL | 0.016 µg/mL | 0.008 to 0.016 µg/mL | ≤ 0.004 µg/mL | 0.064 to 0.125 µg/mL | 0.064 µg/mL | ≤ 0.004 µg/mL | 0.125 µg/mL | 1 to 2 µg/mL | 0.25 µg/mL
Cc1ccc(-c2ccn3c(=O)c(C(=O)O)cc(C4CC4)c3c2C)cc1 [Example 33 K salt, 1-cyclopropyl-8-(4-methyl-phenyl)-9-methyl-4-oxo-4H-quinolizine-3-carboxylic acid] | 0.5 to 1 µg/mL | 2 µg/mL | 0.016 µg/mL | 0.25 µg/mL | 0.064 µg/mL | 0.016 to 0.032 µg/mL | 0.25 µg/mL | 0.5 µg/mL | 0.016 to 0.032 µg/mL | 0.5 µg/mL | 0.5 to 1 µg/mL | 0.5 µg/mL
Cc1c(-c2cc(Cl)c(N)c(Cl)c2)ccn2c(=O)c(C(=O)O)cc(C3CC3)c12 [Example 29 K salt, 1-cyclopropyl-8-(4-amino-3,5-dichloro-phenyl)-9-methyl-4-oxo-4H-quinolizine-3-carboxylic acid] | 0.5 µg/mL | 4 µg/mL | 0.008 µg/mL | 0.064 µg/mL | 0.008 to 0.016 µg/mL | ≤ 0.004 µg/mL | 0.25 µg/mL | 0.125 µg/mL | 0.008 to 0.016 µg/mL | 0.25 µg/mL | 0.5 to 1 µg/mL | 0.25 µg/mL
